Reference: ChEMBL document CHEMBL1201862, “PubChem BioAssay data set” (2004)
Blank lines part the entries; values can stand above or below the compound they belong to. Active and inactive are the calls of the source.

What was measured:
[1] = MITF Orthogonal Assay: SK-MEL-5 CTG Assay Measured in Cell-Based System Using Plate Reader - 2084-02_Inhibitor_Dose_DryPowder_Activity_Set7.; assay type: functional
[2] = inhibitors of TRPM1-promoter reporter in SK-MEL-5 – cell-based, luciferase, dry powder, set 8, MITF inhibitor project, dose response (AID 624430); assay type: functional
[3] = MITF: Counter assay: A375 proliferation Measured in Cell-Based System Using Plate Reader - 2084-03_Inhibitor_Dose_DryPowder_Activity_Set8.; assay type: functional; settings: A-375
[4] = biological target: Metabotropic glutamate receptor 5 (Rattus norvegicus, UniProt P31424); experiment: Identification of a glycine sulfonamide based non-MPEP site positive allosteric potentiator (PAM) of mGlu5 (calcium_assay).; assay type: functional
[5] = biological target: Protein Tat (Human immunodeficiency virus type 1 group M subtype B (isolate HXB2)(HIV-1), UniProt P04608); assay type: functional;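 further: tat binding to TAR RNA read out by fluorescence polarization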
[6] = biological target: Paired box protein Pax-8 (Homo sapiens, UniProt Q06710); experiment: PAX8 transcriptional activity inhibition in RMG-I – RMG-I cells, luciferase, cherry-pick, dose response (AID 687027); assay type: functional, cell-based;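 further: luciferase reporter driven by Pax8 target thyroperoxidase promoter measured by SteadyGlo luminescence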
[7] = A2780 cell killing – plate reader, dry powder samples, cytotoxicity control, dose response (AID 743046); assay type: functional, cell-based
[8] = OVCAR8 cell viability loss – plate reader, dry powder samples, PAX8 project, dose response (AID 743197); assay type: functional, cell-based; settings: OVCAR-8
[9] = OVCAR-3 cell viability loss – plate reader, dry powder samples, PAX8 inhibitor project, dose response (AID 743044); assay type: functional, cell-based
[10] = IGROV1 cell killing – plate reader, dry powder samples, PAX8 inhibitor project, dose response (AID 743043); assay type: functional, cell-based; settings: IGROV-1
[11] = toxicity toward immortalized ovarian surface epithelium – cell-based, plate reader, dry powder samples, cytotoxicity control for PAX8 inhibitor project, dose response (AID 743045); assay type: functional
[12] = biological target: RNA-editing ligase 1, mitochondrial (Trypanosoma brucei brucei, UniProt P86926); experiment: inhibition of trypanosome RNA editing ligase – biochemical, fluorescence, Trypanosoma brucei, dose response (AID 1117295); assay type: functional
[13] = biological target: Induced myeloid leukemia cell differentiation protein Mcl-1 (Homo sapiens, UniProt Q07820); assay type: functional
[14] = biological target: T1, Mannose-6-phosphate isomerase (Homo sapiens, UniProt P34949); experiment: MPI inhibition at elevated mannose 6-phosphate – biochemical, fluorescence intensity, high mannose 6-phosphate, primary screen (AID 1220)
T1 sequence (P34949 whole entry): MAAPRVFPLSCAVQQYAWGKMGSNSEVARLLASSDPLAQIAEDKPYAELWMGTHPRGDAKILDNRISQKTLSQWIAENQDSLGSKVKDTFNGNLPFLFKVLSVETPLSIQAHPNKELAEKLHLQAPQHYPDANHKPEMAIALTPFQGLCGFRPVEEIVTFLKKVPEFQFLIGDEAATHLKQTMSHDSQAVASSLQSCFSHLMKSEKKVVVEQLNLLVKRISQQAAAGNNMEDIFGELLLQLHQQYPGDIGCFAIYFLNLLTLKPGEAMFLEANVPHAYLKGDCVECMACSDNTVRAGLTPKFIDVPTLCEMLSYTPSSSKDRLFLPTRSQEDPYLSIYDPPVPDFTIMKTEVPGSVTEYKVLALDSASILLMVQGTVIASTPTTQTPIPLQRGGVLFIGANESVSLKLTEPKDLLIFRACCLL

[15] = biological target: Genome polyprotein (dengue virus type 2, UniProt P29990); experiment: flavivirus cap methylation enzyme inhibition – biochemical, confirmation dose response, primary screen (AID 588689); assay type: functional
[16] = biological target: T2, Histone-lysine N-methyltransferase NSD2 (Homo sapiens, UniProt O96028); assay type: biochemical
T2 sequence (O96028 whole entry): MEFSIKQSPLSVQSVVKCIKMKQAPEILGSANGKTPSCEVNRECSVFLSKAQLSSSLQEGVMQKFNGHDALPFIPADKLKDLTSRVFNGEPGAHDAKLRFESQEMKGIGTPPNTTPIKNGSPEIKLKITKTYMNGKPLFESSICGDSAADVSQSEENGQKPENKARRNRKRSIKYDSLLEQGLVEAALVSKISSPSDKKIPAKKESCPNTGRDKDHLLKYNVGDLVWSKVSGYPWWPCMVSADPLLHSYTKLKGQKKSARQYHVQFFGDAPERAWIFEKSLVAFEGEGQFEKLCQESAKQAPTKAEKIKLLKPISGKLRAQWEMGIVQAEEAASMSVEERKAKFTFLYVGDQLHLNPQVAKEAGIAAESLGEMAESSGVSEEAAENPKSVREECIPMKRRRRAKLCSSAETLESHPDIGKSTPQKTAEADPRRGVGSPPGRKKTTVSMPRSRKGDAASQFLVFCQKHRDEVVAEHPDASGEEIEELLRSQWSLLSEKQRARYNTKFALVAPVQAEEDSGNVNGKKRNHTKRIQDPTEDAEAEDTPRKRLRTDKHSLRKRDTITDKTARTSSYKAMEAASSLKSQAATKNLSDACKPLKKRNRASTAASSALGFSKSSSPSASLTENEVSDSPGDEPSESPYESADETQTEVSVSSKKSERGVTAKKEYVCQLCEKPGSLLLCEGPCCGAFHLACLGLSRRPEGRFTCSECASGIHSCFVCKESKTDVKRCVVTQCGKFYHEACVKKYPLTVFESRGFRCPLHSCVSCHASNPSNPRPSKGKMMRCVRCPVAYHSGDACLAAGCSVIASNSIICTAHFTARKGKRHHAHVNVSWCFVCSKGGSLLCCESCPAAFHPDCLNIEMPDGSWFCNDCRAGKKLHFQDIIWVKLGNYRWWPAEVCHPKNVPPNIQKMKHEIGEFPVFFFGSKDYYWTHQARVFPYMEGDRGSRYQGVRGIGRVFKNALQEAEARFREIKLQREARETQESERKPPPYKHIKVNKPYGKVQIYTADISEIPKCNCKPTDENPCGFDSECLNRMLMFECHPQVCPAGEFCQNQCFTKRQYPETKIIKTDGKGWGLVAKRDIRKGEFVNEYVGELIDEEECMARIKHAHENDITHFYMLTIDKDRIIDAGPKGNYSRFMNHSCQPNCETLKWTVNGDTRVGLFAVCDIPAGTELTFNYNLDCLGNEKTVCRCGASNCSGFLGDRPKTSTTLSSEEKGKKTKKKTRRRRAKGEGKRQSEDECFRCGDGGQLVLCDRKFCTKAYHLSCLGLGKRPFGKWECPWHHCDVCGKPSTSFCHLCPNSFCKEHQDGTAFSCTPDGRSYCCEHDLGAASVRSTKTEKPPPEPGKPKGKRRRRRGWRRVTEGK

[17] = tested on: HEK293; experiment: viability loss in HEK293T cells – cell-based, ATP luminescence, cherry-pick samples, cytotoxicity control, dose response (AID 687005); assay type: functional; settings: Homo sapiens;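 further: cells exposed to compound for 48 hours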
[18] = HEK293 Cytotoxicity Assay Measured in Cell-Based System Using Plate Reader - 7071-01_Inhibitor_Dose_CherryPick_Activity_Set2.; assay type: functional

RNA-editing ligase 1, mitochondrial, sequence (P86926 whole entry): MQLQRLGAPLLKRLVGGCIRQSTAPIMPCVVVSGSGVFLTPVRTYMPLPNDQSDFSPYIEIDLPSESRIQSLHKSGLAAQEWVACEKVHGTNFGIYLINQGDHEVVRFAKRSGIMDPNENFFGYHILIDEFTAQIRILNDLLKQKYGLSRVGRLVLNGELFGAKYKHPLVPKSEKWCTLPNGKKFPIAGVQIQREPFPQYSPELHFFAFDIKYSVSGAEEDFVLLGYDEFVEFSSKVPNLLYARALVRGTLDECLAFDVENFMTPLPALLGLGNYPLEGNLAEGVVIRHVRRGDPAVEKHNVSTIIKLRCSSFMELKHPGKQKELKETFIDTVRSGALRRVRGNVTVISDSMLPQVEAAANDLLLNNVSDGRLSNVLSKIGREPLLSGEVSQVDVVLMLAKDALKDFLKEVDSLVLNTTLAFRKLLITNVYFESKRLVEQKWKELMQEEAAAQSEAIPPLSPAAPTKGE
Genome polyprotein, sequence (P29990 2492-3391 limits assumed): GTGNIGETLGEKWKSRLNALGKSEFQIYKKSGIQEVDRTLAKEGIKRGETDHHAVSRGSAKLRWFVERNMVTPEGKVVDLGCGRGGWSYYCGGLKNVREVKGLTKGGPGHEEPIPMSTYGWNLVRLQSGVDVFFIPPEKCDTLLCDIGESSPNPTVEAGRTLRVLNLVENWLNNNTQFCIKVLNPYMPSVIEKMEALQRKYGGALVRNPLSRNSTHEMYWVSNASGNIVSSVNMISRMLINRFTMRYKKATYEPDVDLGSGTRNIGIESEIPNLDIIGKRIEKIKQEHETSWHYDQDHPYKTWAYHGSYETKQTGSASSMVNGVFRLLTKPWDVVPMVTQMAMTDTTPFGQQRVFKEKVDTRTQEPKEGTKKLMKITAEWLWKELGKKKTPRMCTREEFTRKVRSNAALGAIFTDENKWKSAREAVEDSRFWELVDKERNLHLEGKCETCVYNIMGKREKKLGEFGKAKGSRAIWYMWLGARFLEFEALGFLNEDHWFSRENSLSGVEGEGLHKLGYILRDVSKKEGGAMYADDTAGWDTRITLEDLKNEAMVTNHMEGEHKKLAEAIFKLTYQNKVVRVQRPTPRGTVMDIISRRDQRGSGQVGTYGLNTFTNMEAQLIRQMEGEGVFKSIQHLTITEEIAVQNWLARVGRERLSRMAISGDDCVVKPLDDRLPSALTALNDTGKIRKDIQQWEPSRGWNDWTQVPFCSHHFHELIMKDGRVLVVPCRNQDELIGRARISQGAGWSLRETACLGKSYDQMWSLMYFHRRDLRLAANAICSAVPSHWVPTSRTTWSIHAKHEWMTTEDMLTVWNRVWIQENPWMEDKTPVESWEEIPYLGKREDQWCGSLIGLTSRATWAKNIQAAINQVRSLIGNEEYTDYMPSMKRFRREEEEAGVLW
Induced myeloid leukemia cell differentiation protein Mcl-1, sequence (Q07820 whole entry): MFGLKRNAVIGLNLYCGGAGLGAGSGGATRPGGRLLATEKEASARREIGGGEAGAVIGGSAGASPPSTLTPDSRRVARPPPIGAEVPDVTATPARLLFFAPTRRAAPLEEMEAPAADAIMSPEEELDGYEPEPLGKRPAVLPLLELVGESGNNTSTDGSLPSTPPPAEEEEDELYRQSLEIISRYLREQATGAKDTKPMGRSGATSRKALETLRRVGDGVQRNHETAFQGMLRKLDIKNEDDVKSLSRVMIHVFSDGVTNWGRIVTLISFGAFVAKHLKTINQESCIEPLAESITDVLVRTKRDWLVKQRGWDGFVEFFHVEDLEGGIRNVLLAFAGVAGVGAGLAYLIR
Paired box protein Pax-8, sequence (Q06710 whole entry): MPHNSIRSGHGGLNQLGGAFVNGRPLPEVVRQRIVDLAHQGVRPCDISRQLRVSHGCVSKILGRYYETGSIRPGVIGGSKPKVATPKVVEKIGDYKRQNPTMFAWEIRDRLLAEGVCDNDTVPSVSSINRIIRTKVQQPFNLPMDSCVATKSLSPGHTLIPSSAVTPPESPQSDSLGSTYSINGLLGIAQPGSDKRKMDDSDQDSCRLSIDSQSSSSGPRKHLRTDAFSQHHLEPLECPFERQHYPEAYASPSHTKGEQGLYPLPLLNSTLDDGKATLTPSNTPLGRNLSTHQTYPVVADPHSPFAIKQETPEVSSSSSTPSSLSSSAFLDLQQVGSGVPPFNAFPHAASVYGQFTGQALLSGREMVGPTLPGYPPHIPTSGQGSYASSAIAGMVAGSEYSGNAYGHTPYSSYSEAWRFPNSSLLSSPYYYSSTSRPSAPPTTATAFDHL
Protein Tat, sequence (P04608 whole entry): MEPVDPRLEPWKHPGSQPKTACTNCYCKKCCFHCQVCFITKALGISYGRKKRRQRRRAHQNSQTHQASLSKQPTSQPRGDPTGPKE
Metabotropic glutamate receptor 5, sequence (P31424 whole entry): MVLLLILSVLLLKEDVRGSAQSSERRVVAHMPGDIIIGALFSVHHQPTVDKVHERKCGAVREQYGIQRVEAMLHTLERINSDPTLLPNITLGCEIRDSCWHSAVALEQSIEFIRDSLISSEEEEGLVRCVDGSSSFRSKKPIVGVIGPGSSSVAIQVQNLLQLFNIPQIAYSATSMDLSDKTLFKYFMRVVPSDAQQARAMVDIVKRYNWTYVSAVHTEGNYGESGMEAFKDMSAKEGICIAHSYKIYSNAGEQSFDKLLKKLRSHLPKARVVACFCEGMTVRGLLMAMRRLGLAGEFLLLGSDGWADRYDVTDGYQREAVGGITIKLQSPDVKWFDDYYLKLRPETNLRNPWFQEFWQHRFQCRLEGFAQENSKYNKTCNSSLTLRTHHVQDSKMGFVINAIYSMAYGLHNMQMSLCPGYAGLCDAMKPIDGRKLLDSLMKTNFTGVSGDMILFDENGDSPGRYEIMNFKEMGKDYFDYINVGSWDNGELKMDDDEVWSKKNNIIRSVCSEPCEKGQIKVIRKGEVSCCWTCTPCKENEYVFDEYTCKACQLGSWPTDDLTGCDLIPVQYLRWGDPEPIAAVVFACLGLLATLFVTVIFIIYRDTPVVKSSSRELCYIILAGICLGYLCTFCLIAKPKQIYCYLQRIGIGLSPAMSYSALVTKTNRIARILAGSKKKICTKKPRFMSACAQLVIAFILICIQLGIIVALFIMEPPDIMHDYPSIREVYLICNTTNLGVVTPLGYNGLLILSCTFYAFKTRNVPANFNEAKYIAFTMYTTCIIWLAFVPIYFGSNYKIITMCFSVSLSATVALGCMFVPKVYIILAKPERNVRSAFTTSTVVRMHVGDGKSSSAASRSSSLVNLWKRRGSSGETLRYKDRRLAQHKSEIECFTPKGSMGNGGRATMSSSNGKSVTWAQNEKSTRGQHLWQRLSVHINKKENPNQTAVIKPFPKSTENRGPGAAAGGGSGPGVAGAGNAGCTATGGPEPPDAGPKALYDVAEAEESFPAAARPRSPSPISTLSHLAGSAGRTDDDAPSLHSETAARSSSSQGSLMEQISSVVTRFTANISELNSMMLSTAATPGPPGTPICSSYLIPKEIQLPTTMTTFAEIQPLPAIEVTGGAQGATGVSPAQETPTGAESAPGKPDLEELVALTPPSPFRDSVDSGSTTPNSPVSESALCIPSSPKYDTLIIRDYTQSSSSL

SMILES: O=C1C(Nc2ccccc2)=CC(=O)c2ncccc21
AC50 [1]: 0.195 µM (active)
AC50 [2]: 0.413 µM (active)
AC50 [3]: 16.2 µM (active)

SMILES: C[C@@H]1CCCCO[C@@H](CN(C)CC2CCCCC2)[C@H](C)CN([C@H](C)CO)C(=O)c2cc(NS(=O)(=O)c3ccc(Cl)cc3)ccc2O1
AC50 [6]: 5.5 µM (active)
AC50 [7]: 20.4 µM (active)
AC50 [8]: 25.6 µM (active)
AC50 [9]: 23.4 µM (active)
AC50 [10]: 33.5 µM (active)
AC50 [11]: 41.4 µM (active)

SMILES: CCS(=O)(=O)NCC[C@H]1CC[C@H](NS(=O)(=O)c2cccc(F)c2)[C@H](CO)O1
AC50 [17]: 33.5 µM (active)
AC50 [18]: 33.5 µM (active)

Continued, values first:

EC50 [4]: 1.69 µM
SMILES: CS(=O)(=O)N(CC(=O)Nc1cccnc1F)c1ccccc1Cl

IC50 [5]: > 50 µM (active)
SMILES: Cn1c(SCC(=O)c2cc(Cl)c(Cl)s2)nnc1-c1ccco1

IC50 [12]: > 96.6 µM (inactive)
IC50 [13]: 3.52 µM (active)
IC50 [14]: 8.94 µM (active)
IC50 [15]: > 100 µM (active)
AC50 [16]: > 20 µM (inactive)
SMILES: O=C(Cc1csc(N2CCOCC2)n1)N/N=C/c1ccc(O)c(O)c1O
